The record followed here is patent US20030078274A1, “Method of reducing neuronal injury or apoptosis” (priority 1999, published 2003).

The assay deals with retinal ganglion cells (RGCs). Kind of assay: Optic nerve axotomy model of glaucoma: RGC survival in vivo. Further details: species or system Long-Evans rats. An excerpt: As a model for studying treatment of glaucoma, damaged (axotomized) retinal ganglion cells were employed. Specifically, transection of the optic nerve close to the cell body causes apoptotic death of retinal ganglion cells (RGCs), similar to that found in glaucoma. […] Three days later, the left optic nerve was intraorbitally transected 1 mm from the globe. One day after axotomy, no remarkable change in the fluorescence pattern of RGCs was seen compared to that of controls. RGC density, as assessed by the number of fluorescently-labeled cells, began to decline between 4 and 7 days post axotomy. By 14 days, a substantial number of fluorescently-labeled RGCs appeared to have been lost. Morphologically, in whole-mounted retinas stained with cresyl violet, ganglion cell layer (GCL) of unlesioned control retinas manifest no apoptotic profiles or pyknotic nuclei. In contrast, by 10 days after axotomy, multiple degenerating cell bodies with pyknotic nuclei were apparent in the GCL, and the cell density in this layer appeared to be greatly diminished. When hydroxystilbamidine fluorescence in the GCL was quantified, in unlesioned control retinas the mean RGC density was 2533±104 cells/mm^2 (mean±SD). Within 14 days of axotomy, the mean RGC density decreased to 348±107 (14% of control).
One day after axotomy, activated (di-phosphorylated) p38 was visualized by immunocytochemistry in the RGC layer, but not in control retinas. By Western blotting, phosphorylated p38 was first detected 12 hours after axotomy and reached a maximum at 24 hours before decreasing. SB 203580 was administered intravitreally at the time of axotomy, and repeated at 5 days and 10 days.
Retrograde labeling of retinal ganglion cells. Adult male Long-Evans rats weighing 200 to 250 g were obtained from a local breeder and, for all experimental manipulations, were anesthetized with 1-2% isoflurane and 70% N2O. RGCs were retrogradely labeled with hydroxystilbamidine (Molecular Probes, Eugene, Oreg., also known as Fluoro-Gold™) to allow accurate counting of cell bodies as described in Vorwerk et al., Invest. Ophthalmol. Vis. Sci. 40:813-816. Rats were anesthetized and placed in a small stereotactic instrument. The skull was exposed and kept dry. The bregma was identified and marked, and a small window was drilled above the right hemisphere, leaving the dura intact.
Axotomy. Optic nerve axotomy was performed on the left eye 4 days after retrograde labeling. After incision of the dorsolateral conjunctiva, the lateral extraocular muscle was transected, and the optic nerve was exposed under a stereoscopic microscope. The optic nerve was then transected at a distance of about 1 mm from the eye bulb. During the operation, care was taken to avoid damage to the retinal blood supply.
Drug application. Intravitreal injections were carried out using a 33-gauge needle attached to a 25 μl syringe following pupil dilation with 1% atropine sulfate. The tip of the needle was inserted through the dorsal limbus of the eye under stereomicroscopic visualization. Injections were completed over a period of 1 min. Intravitreal injections of SB 203580 (Calbiochem, San Diego, Calif.), MK801 (Research Biochemicals International, Natick, Mass.) or control solutions (as an equal volume of saline diluent) were performed on operated eyes immediately after axotomy, and repeated 5 and 10 days post axotomy.
Quantification of axotomized RGC survival and histology. […]

As to `C[S+]([O-])c1ccc(-c2nc(-c3ccc(F)cc3)c(-c3ccncc3)[nH]2)cc1` (stereo not shown) [SB 203580, 4-(4-fluorophenyl)-2-(4-methylsulfinylphenyl)-5-(4-pyridyl)-1H-imidazole], the “neuroprotection of RGCs” value (0.2 nmol intravitreal (corresponding to 1.6 μM), 14 days post axotomy) is recorded as “significant degree of neuroprotection”. Further, the “number of surviving RGCs” value runs as follows: (10 nmol intravitreal, 14 days post axotomy, axotomy alone 348, control 2,511) 1,347 cells/mm^2; (14 days post axotomy, intravitreal at axotomy, 5 and 10 days, dose series) “increased the number of surviving RGCs in a dose-dependent manner”. In addition, where the note is “SB 203580 added to MK801, intravitreal, axotomy”, the “RGC protection on addition to MK801, compared with MK801 alone” value is recorded as “did not offer further protection”.
